The record followed here is patent US20170001990A1 (Genentech, Inc., priority 2014, published 2017).

Broadly, the IC50 is the concentration at which inhibition is half-maximal.

The target of the experiment is Human recombinant carboxy-terminal his-tagged LDHA (amino acids 2-332) (Homo sapiens, UniProt P00338). The experiment is described as follows: LDHA enzyme inhibition assay (NADH fluorescence). Conditions: LDHA IC50 (μM), 1 nM LDHA, NADH and pyruvate, stereochemistry of tested sample given.
As to `O=C1C[C@](c2ccsc2)(c2cccc(Oc3ccc(C(F)(F)F)cc3)n2)NC(=O)C1Sc1ccccc1Cl` (stereo partly drawn) [Example 330, (6S)-3-(2-chlorophenyl) sulfanyl-6-(3-thienyl)-6-[6-[4-(trifluoromethyl)phenoxy]-2-pyridyl] piperidine-2,4-dione], the IC50 was 0.041 µM.

On to `CC(Nc1cccc(C2(c3ccsc3)CC(=O)C(Sc3ccccc3Cl)C(=O)N2)n1)C1CC1` (centres unmarked) [Example 331], for which the IC50 was determined as 0.148 µM.

As for `CC(Nc1cccc(C2(c3ccsc3)CC(=O)C(Sc3ccccc3Cl)C(=O)N2)n1)C1CC1` (centres unmarked) [Example 332], the IC50 was determined as 0.168 µM.

As to `O=C1CC(c2ccsc2)(c2cccc(OC3CCCc4c(F)cccc43)n2)NC(=O)C1Sc1ccccc1Cl` (centres unmarked) [Example 333, 5-(2-chlorophenyl)sulfanyl-2-[6-(5-fluorotetralin-1-yl)oxy-2-pyridyl]-4-hydroxy-2-(3-thienyl)-1,3-dihydropyridin-6-one], the IC50 turned out to be 0.198 µM.

Turning to `COc1cc(F)ccc1Oc1cccc(C2(c3ccsc3)CC(=O)C(Sc3ccccc3Cl)C(=O)N2)n1` (centres unmarked) [Example 334, 3-(2-chlorophenyl)sulfanyl-6-[6-(4-fluoro-2-methoxy-phenoxy)-2-pyridyl]-6-(3-thienyl)piperidine-2,4-dione], the IC50 came to 0.739 µM.

`Cc1cc(Nc2cccc([C@@]3(c4ccsc4)CC(=O)C(Sc4ccccc4Cl)C(=O)N3)n2)cnc1F` (stereo partly drawn) [Example 335, (6S)-3-(2-chlorophenyl) sulfanyl-6-[6-[(6-fluoro-5-methyl-3-pyridyl)amino]-2-pyridyl]-6-(3-thienyl) piperidine-2,4-dione]: the IC50 was 0.002 µM.

`O=C1CC(c2ccsc2)(c2cccc(Oc3ccccc3)n2)NC(=O)C1Sc1ccccc1Cl` [Example 336, (6R)-3-(2-chlorophenyl) sulfanyl-6-(6-phenoxy-2-pyridyl)-6-(3-thienyl) piperidine-2,4-dione]: the IC50 worked out at 0.368 µM.

`O=C1CC(c2cccc(Oc3ccc(F)cc3)n2)(c2ccccc2O)NC(=O)C1Sc1ccccc1Cl` (centres unmarked) [Example 338, 5-(2-chlorophenyl)sulfanyl-2-[6-(4-fluorophenoxy)-2-pyridyl]-4-hydroxy-2-(2-hydroxyphenyl)-1,3-dihydropyridin-6-one]: the IC50 is 0.009 µM.
